Reference: paper PMC6149949, “Synthesis and Evaluation of Thiochroman-4-One Derivatives as Potential Leishmanicidal Agents” (Molecules : A Journal of Synthetic Chemistry and Natural …, 2017)

Assays:
[1] = test system: intracellular amastigotes of Leishmania panamensis (MHOM/CO/87/UA140-EGFP strain); assay: In vitro antileishmanial activity on intracellular amastigotes (GFP, flow cytometry); assay type: cell-based; conditions: for EC50: intracellular amastigotes of L. panamensis in U-937 cells, 72 h, mean ± SD; for SI (index of selectivity, IS = LC50/EC50): LC50 U-937 / EC50 L. panamensis amastigotes
Method: Antileishmanial activity of compounds was determined according to the ability of the compound to reduce the infection by L. panamensis parasites. For this, the antileishmanial activity was tested on intracellular amastigotes of L. panamensis transfected with the green fluorescent protein gene (MHOM/CO/87/UA140-EGFP strain). Briefly, U-937 human cells at a density of 3 × 10^5 cells/mL in RPMI 1640 and 0.1 μg/mL of PMA (phorbol-12-myristate-13-acetate) were dispensed on 24-wells microplate and then infected with stationary phase growing L. panamensis promastigotes in 15:1 parasites per cell ratio. Plates were incubated at 34 °C and 5% CO2 for 3 h and then cells were washed twice with phosphate buffer solution (PBS) to eliminate not internalized parasites. Fresh RPMI-1640 was added into each well (1 mL) and plates were incubated again. After 24 h of infection, the RPMI-1640 medium was replaced by fresh culture medium containing each compound at four serial dilutions (50, 12.5, 3.125 and 0.78 μg/mL) and plates were then incubated at 37 °C and 5% CO2 during 72 h, then, cells were removed from the bottom plate with 100 μL of EDTA/Trypsin (250 mg) solution. The cells were centrifuged at 1100 rpm during 10 min at 4 °C, the supernatant was discarded and cells were washed with 1 mL of cold PBS and centrifuged at 1100 rpm for 10 min at 4 °C. Cells were washed two times employing PBS, as previously, and after the last wash, the supernatant was discarded and cells were suspended in 500 μL of PBS.
Cells were analyzed by flow cytometry employing a flow cytometer (cytomics FC 500MPL, Beckman Coulter. Pasadena, CA, USA) reading at 488 nm (exciting) and 525 nm (emitting) over an argon laser and counting 10,000 events. Infected cells were determined according the events for green fluorescence (parasites). All determinations for each compound and standard drug were carried out by triplicate, in two experiments. Infected cells exposed to control drug (amphotericin B) were used as control for antileishmanial activity (positive control) while infected cells incubated in absence of any compound or drug were used as control for infection (negative control). Nonspecific fluorescence was corrected by subtracting fluorescence of unstained cells. Determinations were done by triplicate in at least two independent experiments.
Antileishmanial activity was determined according reduction of percentage of fluorescent parasites determined according to the median fluorescence intensity (MFI), obtained for each experimental condition by cytometry. The parasite values for each concentration of compound were calculated by Equation (3), where the % of parasites in the control well, corresponds to 100% of parasites. % parasites = (MFI exposed parasites/MFI unexposed parasites) × 100(3)
Then, inhibition percentage was calculated with Equation (4):% inhibition of parasites = 100 − (% parasites)(4)
Results of antileishmanial activities were expressed as the median effective concentrations (EC50) measured by Probit method.

[2] = in vitro; conditions: human
Method: Cytotoxicity of the compounds was evaluated over human monocytes (U-937 ATCC CRL-1593.2) in exponential growing phase and, adjusted at 1 × 10^5 cells/mL in RPMI-1640 enriched with 10% fetal bovine serum (FBS). One hundred microliters of cell suspension were dispensed in each well of a 96-wells microplate and then, 100 μL of each compound or standard drug (amphotericin B) at four serial dilution concentrations (200, 50, 12.5 and 3.125 μg/mL) were added dissolved in pbs with 0.5% DMSO. Cell exposed to compounds or standard drugs were incubated 72 h at 37 °C and 5% of CO2. Cytotoxic activity of each compound was determined according to the effect on the cell viability by the MTT microenzymatic method in which 3-(4,5-dimethylthiazol-2-yl)- 2,5-diphenyltetrazolium bromide is reduced to a purple product named formazan by mitochondrial enzyme succinate dehydrogenase. Thus, 10 μL/well of MTT solution (5 mg/mL) were added to each well of exposed and unexposed cells, and plates were incubated at 37 °C, 5% CO2 during 3 h. The reaction was stopped by adding 100 μL/well of isopropanol with 50% and 10% of SDS (sodium dodecyl sulfate). The concentration of formazan was determined spectrophotometrically at 570 nm (Varioskan Flash Multimode Reader, Thermo Scientific, Waltham, MA, USA) and intensity of color (absorbance) was registered as O.D. Cells exposed to control drug (amphotericin B) were used as control for toxicity (positive control) while cell incubated in absence of any compound or drug were used as control for viability (negative control). Non-specific absorbance was corrected by subtracting absorbance (O.D) of the blank. Determinations were done by triplicate in at least two independent experiments.
Cytotoxicity was determined according to viability and mortality percentages obtained for each experimental condition (synthetized compounds, amphotericin B and culture medium). Results were expressed as the mean lethal concentrations (LC50), concentration necessary to kill 50% of cells, calculated by the parametric method of linear regression that permits doses-response analysis (Probit analysis).
Initially, viability percentages were calculated by Equation (1), where the O.D of control well, corresponds to 100% of viability. % viability = (O.D exposed cells/O.D unexposed cells) × 100(1)
Then, the percentage of cell growth inhibition was calculated using Equation (2):% inhibition = 100 − (% Viability)(2)
The toxicity was defined according to LC50 values, using the follow scale: Toxic; LC50 < 100 μM; moderately toxic; LC50 > 100 μM and <200 μM and potentially nontoxic; LC50 > 200 μM.

[3] = Leishmania panamensis, U-937, 72 h

SMILES | EC50 [1, 3] [µM] | CC50 at 72 h [2] [µM] | SI (index of selectivity, IS = LC50/EC50) [1] | EC50 [1] [µM]
O=c1cc(-c2ccc([N+](=O)[O-])cc2)sc2ccccc12 [Compound 2m, 2-(4-nitrophenyl)-4H-thiochromen-4-one] | > 70.6 | > 706 |  | 
O=C1CCS(=O)(=O)c2ccc(F)cc21 [Compound 3c, 6-Fluorothiochroman-4-one 1,1-dioxide] | > 93.5 | > 934 |  | 
O=C1CC(c2ccccc2)S(=O)(=O)c2ccccc21 (centres unmarked) [Compound 3h, 2-Phenylthiochroman-4-one 1,1-dioxide] | 217 ± 34.9 | 529 ± 52.9 |  | 
CC1CC(=O)c2ccccc2S1(=O)=O (centres unmarked) [Compound 3a, 2-Methylthiochroman-4-one 1,1-dioxide] | > 95.2 | > 825 |  | 
O=c1cc(-c2ccc(F)cc2)sc2ccccc12 [Compound 2l, 2-(4-Fluorophenyl)-4H-thiochromen-4-one] | > 78 | 503 ± 382 | <6.45 | 
O=C1CC(c2ccc(Cl)cc2)S(=O)(=O)c2ccccc21 (centres unmarked) [Compound 3k, 2-(4-Chlorophenyl)-thiochroman-4-one 1,1-dioxide] | 137.1 ± 1.29 | > 652 | >4.76 | 
Nc1ccc2c(c1)C(=O)CCS2 [Compound 1g, 6-Aminothiochroman-4-one] | > 112 | 118 ± 10.5 | <1.100 | 
CC1CC(=O)c2cc(F)ccc2S1 (centres unmarked) [Compound 1b, 6-Fluoro-2-methylthiochroman-4-one] |  | 579 ± 59.1 | 1.37 | 
O=C1CCSc2ccc(F)cc21 [Compound 1c, 6-Fluorothiochroman-4-one] | > 110 | 705 | <6.42 | 
O=C1CC(c2ccc(Cl)cc2)Sc2ccccc21 (centres unmarked) [Compound 1k, 2-(4-Chlorophenyl)-thiochroman-4-one] | > 72.8 | 64.4 ± 3.98 | <0.90 | 
CC1CC(=O)c2ccccc2S1 (centres unmarked) [Compound 1a, 2-Methylthiochroman-4-one] |  | 604 ± 86.4 | 1.36 | 
O=c1ccsc2ccc([N+](=O)[O-])cc12 [Compound 2f, 6-Nitro-4H-thiochromen-4-one] | 36.8 ± 1.74 | > 965 | >26.26 | 
O=C1CC(c2ccc(C(F)(F)F)cc2)Sc2ccccc21 (centres unmarked) [Compound 1i, 2-(4-(Trifluoromethyl)-phenyl)-thiochroman-4-one] | 61.4 ± 1.62 | > 649 | >10.56 | 
O=C1C=C(c2ccccc2)S(=O)(=O)c2ccccc21 [Compound 4h, 2-Phenyl-4H-thiochromen-4-one 1,1-dioxide] | < 10 | > 740 | >97.94 | 7.56 ± 0.33
O=C1CC(c2ccc(F)cc2)S(=O)(=O)c2ccccc21 (centres unmarked) [Compound 3l, 2-(4-Fluorophenyl)thiochroman-4-one 1,1-dioxide] | > 68.9 | 689 |  | 
O=c1cc(-c2ccc(C(F)(F)F)cc2)sc2ccccc12 [Compound 2i, 2-(4-(Trifluoromethyl)-phenyl)-4H-thiochromen-4-one] | 161 ± 20.5 | 522 ± 314 | 3.24 | 
O=C1CC(c2ccccc2)Sc2ccccc21 (centres unmarked) [Compound 1h, 2-Phenylthiochroman-4-one] | 44.1 ± 0.9 | > 41.6 |  | 
O=C1CC(C(=O)O)Sc2ccccc21 (centres unmarked) [Compound 1e, 4-Oxothiochroman-2-carboxylic acid] | > 96.1 | 143 ± 16.8 | <1.48 | 
O=C1C=C(c2ccc([N+](=O)[O-])cc2)S(=O)(=O)c2ccccc21 [Compound 4m, 2-(4-Nitrophenyl)-4H-thiochromen-4-one 1,1-dioxide] | < 10 | > 634 | >87.70 | 7.23 ± 0.44
O=C1CC(c2ccc(C(F)(F)F)cc2)S(=O)(=O)c2ccc(F)cc21 (centres unmarked) [Compound 3j, 6-Fluoro-2-(4-(trifluoromethyl)-phenyl)-thiochroman-4-one 1,1-dioxide] | 79.1 ± 8.98 | > 558 | >7.06 | 
O=C1C=C(c2ccc(Cl)cc2)S(=O)(=O)c2ccccc21 [Compound 4k, 2-(4-Chlorophenyl)-4H-thiochromen-4-one 1,1-dioxide] | < 10 | > 656 | >87.70 | 7.47 ± 0.75
O=C1C=C(c2ccc(F)cc2)S(=O)(=O)c2ccccc21 [Compound 4l, 2-(4-Fluorophenyl)-4H-thiochromen-4-one 1,1-dioxide] | < 10 | > 694 |  | 6.72 ± 0.16
O=c1cc(-c2ccc(C(F)(F)F)cc2)sc2ccc(F)cc12 [Compound 2j, 6-Fluoro-2-(4-(trifluoromethyl)-phenyl)-4H-thiochromen-4-one] | 52.3 ± 8.92 | 51.4 ± 11.6 | 0.98 | 
O=C1CC(c2ccc(F)cc2)Sc2ccccc21 (centres unmarked) [Compound 1l, 2-(4-Fluorophenyl)-thiochroman-4-one] | 93.6 ± 11 | 72.9 ± 9.87 | 0.78 | 
O=C1C=C(c2ccc(C(F)(F)F)cc2)S(=O)(=O)c2ccc(F)cc21 [Compound 4j, 6-Fluoro-2-(4-(trifluoromethyl)-phenyl)-4H-thiochromen-4-one 1,1-dioxide] |  | > 561 |  | 
